Data published in publication PMC13350973, “Allosteric ensembles elucidate mechanisms of inhibition in the human soluble epoxide hydrolase” (Communications Biology, 2026).
Numbering of substitutions follows the chain as printed. Each block holds one compound with its values, some of them ahead of it.

Assays:
[1] = target: T1, human soluble epoxide hydrolase (sEH) C-terminal domain (Homo sapiens, UniProt P34913); test: single injection method kinetic ITC (KM); type: biochemical
T1 construct: gene EPHX2; CTD, amino acids 230–555
T1 sequence (P34913 230-555): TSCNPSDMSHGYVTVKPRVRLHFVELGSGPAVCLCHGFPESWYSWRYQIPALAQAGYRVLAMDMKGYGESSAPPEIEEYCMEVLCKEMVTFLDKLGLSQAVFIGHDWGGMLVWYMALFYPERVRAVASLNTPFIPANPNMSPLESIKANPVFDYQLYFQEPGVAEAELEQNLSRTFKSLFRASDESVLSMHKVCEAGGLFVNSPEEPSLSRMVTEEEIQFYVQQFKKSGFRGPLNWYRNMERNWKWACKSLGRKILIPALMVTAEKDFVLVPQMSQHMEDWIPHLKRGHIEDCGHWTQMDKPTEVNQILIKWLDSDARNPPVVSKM

[2] = target: T2, human soluble epoxide hydrolase (sEH) C-terminal domain (Homo sapiens, UniProt P34913, C423S); test: single injection method kinetic ITC (KM); type: biochemical
T2 construct: gene EPHX2; CTD, amino acids 230–555
T2 sequence (P34913 230-555 C423S): T1 sequence (P34913 230-555) with C194S

[3] = target: T3, human soluble epoxide hydrolase (sEH) C-terminal domain (Homo sapiens, UniProt P34913, C522S); test: single injection method kinetic ITC (KM); type: biochemical
T3 construct: gene EPHX2; CTD, amino acids 230–555
T3 sequence (P34913 230-555 C522S): T1 sequence (P34913 230-555) with C293S

[4] = target: T4, human soluble epoxide hydrolase (sEH) C-terminal domain, M3 mutant (Homo sapiens, UniProt P34913, R410A/C423S/S439A/R440A/K495A); test: UV spectra of washed covalent adduct of purified protein; fluorometric PHOME specific activity assay; type: binding
T4 construct: gene EPHX2; CTD, amino acids 230–555
T4 sequence (P34913 230-555 R410A/C423S/S439A/R440A/K495A): T1 sequence (P34913 230-555) with R181A, C194S, S210A, R211A, K266A

[5] = target: T1, human soluble epoxide hydrolase (sEH) C-terminal domain; test: spectrofluorometric hydrolysis assay with purified sEH CTD; type: biochemical

Km [1]: 11.2 ± 0.46 µM
Km [2]: 14.6 ± 0.52 µM
Km [3]: 24 ± 2.58 µM
Compound: CCCCCC1OC1C/C=C\C/C=C\C/C=C\CCCC(=O)O (centres unmarked) [14(15)-EET]

Compound: CCCCC/C=C/C=C1/C(=O)C=C[C@@H]1C/C=C\CCCC(=O)O [15d-PGJ2]
UV spectra of washed covalent adduct of purified protein; fluorometric PHOME spe [4]: 8.2 fold reduction in enzymatic specific activity

Compound: COc1ccc2cc(C(C#N)OC(=O)CC3OC3c3ccccc3)ccc2c1 (centres unmarked) [PHOME, 3-phenyl-cyano(6-methoxy-2-naphthalenyl)methylester-2-oxiraneacetic acid]
spectrofluorometric hydrolysis assay with purified sEH CTD [5]: (PHOME), which upon sEH enzymatic hydrolysis releases the fluorescent product 6-methoxy-2-naphtaldeyde (6M2N)
